From ChEMBL document CHEMBL1201862, “PubChem BioAssay data set” (2004)
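Cultured in 96-well plates, cells were exposed to test compound for 48 hours across five concentrations. At the GI50, growth is halved.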 Active and inactive are the calls of the source. Rule as the data show it: active = GI50 up to about 1.1 µM and inactive = higher.

Legend:
Assay in all cases: inhibition of tumour cell growth, NCI panel, 48 h
SW-620 = system: SW-620
SF-539 = system: SF-539
NCI/ADR-RES = system: NCI/ADR-RES
DU-145 = system: DU-145
HOP-92 = system: HOP-92
COLO 205 = system: COLO 205
OVCAR-5 = system: OVCAR-5
SK-MEL-28 = system: SK-MEL-28
MDA-N = system: MDA-N
OVCAR-8 = system: OVCAR-8
SK-OV-3 = system: SK-OV-3
T47D = system: T47D
HCT-116 = system: HCT-116
KM12 = system: KM12
UACC-62 = system: UACC-62
ACHN = system: ACHN
SNB-19 = system: SNB-19
TK-10 = system: TK-10
UACC-257 = system: UACC-257
CCRF-CEM = system: CCRF-CEM

Measured: GI50

CNC(=O)CCC(NC(=O)OC(C)(C)C)C(=O)NC(Cc1ccc(NC(=O)CCCCC(C)=O)cc1)C(=O)NCC(=O)NC (configuration not stated)
inactive: SW-620 > 100 µM | SF-539 > 100 µM | NCI/ADR-RES > 100 µM | DU-145 > 100 µM | HOP-92 > 100 µM | COLO 205 > 100 µM | OVCAR-5 > 100 µM | SK-MEL-28 > 100 µM | MDA-N > 100 µM | OVCAR-8 > 100 µM | SK-OV-3 > 100 µM | T47D > 100 µM | HCT-116 > 100 µM | KM12 > 100 µM | UACC-62 > 100 µM | ACHN > 100 µM | SNB-19 > 100 µM | TK-10 > 100 µM

CC(=O)OCC12C(=O)C[C@@H](C)C3(CC(c4ccoc4)OC3=O)C1CCC(OC(C)=O)C21CO1 (some centres not stated)
inactive: SW-620 > 100 µM | SF-539 > 100 µM | NCI/ADR-RES > 100 µM | DU-145 > 100 µM | HOP-92 > 100 µM | COLO 205 > 100 µM | OVCAR-5 > 100 µM | SK-MEL-28 > 100 µM | MDA-N > 100 µM | OVCAR-8 > 100 µM | T47D > 100 µM | UACC-257 > 100 µM | HCT-116 > 100 µM | KM12 > 100 µM | UACC-62 > 100 µM | ACHN > 100 µM | SNB-19 > 100 µM | TK-10 > 100 µM

O/N=C1\Nc2ccccc2OCc2cc(Br)c(Br)cc2COc2ccccc2N\C1=N/O
inactive: SW-620 11.8 µM | NCI/ADR-RES 20.2 µM | DU-145 13.6 µM | HOP-92 12.6 µM | COLO 205 7.08 µM | OVCAR-5 17.9 µM | CCRF-CEM 4.98 µM | SK-MEL-28 22.6 µM | MDA-N 14.3 µM | OVCAR-8 10.4 µM | SK-OV-3 17.2 µM | T47D 10.9 µM | UACC-257 21.8 µM | HCT-116 6.12 µM | KM12 8.51 µM | UACC-62 15.3 µM | ACHN 5.97 µM | SNB-19 10.7 µM | TK-10 25 µM

NS(=O)(=O)c1nnc(NC(=O)C23CC4CC(CC(C4)C2)C3)s1
inactive: SW-620 > 100 µM | SF-539 > 100 µM | NCI/ADR-RES > 100 µM | DU-145 > 100 µM | HOP-92 > 100 µM | COLO 205 > 100 µM | OVCAR-5 > 100 µM | SK-MEL-28 > 100 µM | MDA-N > 100 µM | OVCAR-8 > 100 µM | SK-OV-3 > 100 µM | T47D 90.4 µM | UACC-257 > 100 µM | HCT-116 > 100 µM | KM12 > 100 µM | UACC-62 > 100 µM | ACHN > 100 µM | SNB-19 > 100 µM | TK-10 > 100 µM

Clc1ccccc1C(Nc1ncccn1)Nc1ncccn1
inactive: SW-620 > 100 µM | SF-539 > 100 µM | NCI/ADR-RES > 100 µM | DU-145 > 100 µM | HOP-92 > 100 µM | COLO 205 > 100 µM | OVCAR-5 > 100 µM | SK-MEL-28 > 100 µM | MDA-N > 100 µM | OVCAR-8 > 100 µM | SK-OV-3 > 100 µM | T47D > 100 µM | UACC-257 > 100 µM | HCT-116 > 100 µM | KM12 > 100 µM | UACC-62 > 100 µM | ACHN > 100 µM | SNB-19 > 100 µM | TK-10 > 100 µM

S=C(Nc1ccc2cn[nH]c2c1)Nc1ccc2cn[nH]c2c1
inactive: SW-620 > 100 µM | SF-539 > 100 µM | NCI/ADR-RES > 100 µM | DU-145 > 100 µM | HOP-92 > 100 µM | COLO 205 44.8 µM | OVCAR-5 95.5 µM | SK-MEL-28 > 100 µM | MDA-N 57.4 µM | OVCAR-8 72.3 µM | SK-OV-3 > 100 µM | T47D 33.5 µM | UACC-257 96.6 µM | HCT-116 58.5 µM | KM12 53.7 µM | UACC-62 48.5 µM | ACHN 51.8 µM | SNB-19 > 100 µM | TK-10 48.1 µM
